± gives the expanded uncertainty stated by the source.
Experiments:
[1] = Crystal; DTA
[2] = Molar enthalpy of transition or fusion; conditions: Crystal; DSC

Structure (SMILES)	Normal melting temperature [1] [°C]	Molar enthalpy of transition or fusion [2] [kcal/mol]
c1ccc(-c2nc(-c3ccccc3)c(-c3ccccc3)[nH]2)cc1 [2,4,5-triphenyl-1H-imidazole]	274.60 ± 2.1	8.92 ± 0.194
c1ccc(-c2nc[nH]c2-c2ccccc2)cc1 [4,5-diphenylimidazole]	231.80 ± 2.1	7.73 ± 0.17
CCn1cc[n+](C)c1.F[P-](F)(F)(F)(F)F [1-ethyl-3-methylimidazolium hexafluorophosphate]	60.90 ± 1.2	4.3 ± 0.105
c1ccc(-c2ncc[nH]2)cc1 [2-phenyl-1H-imidazole]	146.80 ± 2.1	4.26 ± 0.108

From the NIST ThermoML archive (doi:10.1016/j.tca.2007.02.005)
